# Reference: patent US20240350402A1, “TOPICAL DRUG TREATMENT TO PREVENT OR REDUCE CORNEAL SCARRING” (The Cleveland Clinic Foundation, priority 2021, published 2024)
# System: α-smooth muscle actin (SMA) myofibroblast marker
# Test: DMR model: IHC for SMA and keratocan, area of SMA-positive posterior fibrosis (QuPath)
# Type: in vivo, rabbit
# Description: The rabbits had general anaesthesia with 30 mg/kg ketamine hydrochloride and 5 mg/kg xylazine by IM injection. In addition, topical proparacaine hydrochloride 1% (Alcon, Ft Worth, TX, USA) was applied to each eye prior to the surgery. One cornea selected at random in each group either had sham surgery without Descemetorhexis or an 8 mm diameter central Descemet's membrane-endothelial excision. The time point of one month after surgery was selected for the study because myofibroblasts and fibrosis in the posterior cornea was maximal at this time point in a prior time course Descemetorhexis study (Sampaio et al., 2021). Descemetorhexis was performed as described in the prior study (Sampaio et al., 2021). Briefly, a wire lid speculum was placed into one eye of each rabbit and an 8 mm diameter gentian violet circle was marked on the epithelial surface for reference. A limbal entry incision was created with a 1.6 mm blade (Bausch and Lomb, Rochester, NY, USA) and 0.3 ml Healon OVD (Abbott Medical Optics Inc. Santa Ana, CA, USA) was injected into the anterior chamber. A reversed Sinskey hook (Katena, Denville, New Jersey, USA) was placed into the anterior chamber and an 8 mm diameter disc of Descemet's membrane and endothelium was excised underlying the 8 mm area previously marked on the anterior corneal surface, without a subsequent endothelial corneal transplant. No removal of Descemet's membrane or endothelium was performed in unwounded sham surgery eyes. Remaining Healon OVD was removed with a Simcoe irrigation and aspiration cannula (Bausch & Lomb, Storz, Rochester, NY, USA) and the anterior chamber was filled with balanced salt solution (BSS). A single 10-0 nylon suture was placed at the incision site to prevent leakage from the anterior chamber. One drop of ciprofloxacin (Alcon, Ft. Worth, TX, USA) was applied to the corneas immediately after surgery and four times a day until the epithelium entry wound healed at approximately 2 days.
# The oral solution was prepared with 5 ml distilled water+50 ml ora-plus (suspending vehicle—Perrigo, Dublin, Ireland)+45 ml Ora-sweet (flavored syrup vehicle—Perrigo).
# At one month after surgery and treatment, an intravenous injection of 100 mg/kg Beuthanasia (Shering-Plough, Kenilworth, NJ) was given for euthanasia with the animals under general anaesthesia. Sharp Westcott scissors (Fairfield, CT, USA) and 0.12 forceps (Storz, St. Louis, MO) were used to remove the corneo-scleral rims of the sham unwounded and DMR eyes without touching the cornea. Each cornea was set in the center of a 24×24×5 mm mold (Fisher Scientific, Pittsburgh, PA, USA) and the mold was filled in liquid OCT compound (Sakura Finetek, Torrance, CA, USA). The molds and cornea-scleral rims were quick frozen on dry ice and stored at −80° C. until sections were cut.
# Each OCT block was bisected in the exact center of the cornea, and 8 μm thick transverse sections were cut from the central cornea within the previous DMR injury or unwounded sham surgery corneas with a cryostat (HM 505M; Micron GmbH, Walldorf, Germany) and three sections per slide were placed on 25 mm×75 mm×1 mm Superfrost Plus microscope slides (Fisher Scientific, Pittsburgh, PA, USA). Slides were maintained at −20° C. until immunohistochemistry.
# Duplex immunohistochemistry (IHC) was performed after masking of slides by a researcher not involved in the analysis using previously described methods (de Oliveira et al., 2021) using primary antibodies (Table 2) confirmed by western blotting and IHC to recognize rabbit antigens or isotypic control antibodies (ThermoFisher Scientific, Waltham, MA), and secondary fluorescent tagged antibodies (Table 3).
# The area of the SMA-positive posterior fibrotic stroma was quantitated with the original groups masked to the analyzer by standardized photography with a 10× objective on a Leica DM6B upright microscope equipped with an automated stage and Leica 7000 T camera using the LAS X software (Leica Microsystems, GmbH, Wetzlar, Germany). […]
smiles,measurement,setting,value
CCCCc1nc(Cl)c(CO)n1Cc1ccc(-c2ccccc2-c2nn[nH]n2)cc1 [losartan],mean area of the SMA-positive posterior fibrotic area among DMR groups,"DMR, oral losartan alone, one month",highest
same,mean SMA-positive posterior fibrotic area compared to the other DMR groups,"DMR, topical 0.4 mg/ml six times a day",significantly lower
same,SMA-positive fibrotic zone in the posterior cornea,"DMR, topical 0.4 mg/ml six times per day, one month",marked decrease
same,SMA-positive fibrosis in the posterior cornea,"DMR, topical six times per day and oral three times per day, one month",decrease
same,SMA-positive posterior corneal fibrosis in uninjured corneas,oral losartan three times a day,did not develop SMA-positive posterior corneal fibrosis
same,SMA-positive posterior corneal fibrosis in uninjured corneas,topical losartan six times a day,did not develop SMA-positive posterior corneal fibrosis
